Data: patent publication US7034013B2 (priority 2001, dated 2006)
Values after ≈ are worked out from the molar mass of the structure shown. Read-outs that look alike come from different tables or passages of the source.

What was measured:
[1] = for concentration of uncomplexed propofol in solution / concentration of uncomplexed propofol in solution, % of the total: binding constant 3800 M^−1
hemolysis = details: in concentrations typically used to solubilize pharmaceutical formulations; FIG. 1 (Thompson 1997); cited from earlier work
[2] = in the absence of a solubilizing agent; cited from earlier work
physchem = details: water, solubility in water
[3] = intravenous injection of a therapeutic dose; cited from earlier work
[4] = CAPTISOL cyclodextrin 14.4% w/v (0.0665M)
[5] = CAPTISOL cyclodextrin 50% w/v (0.231M)

## Sulfobutyl Ether-β-Cyclodextrin [CAPTISOL® cyclodextrin]
[1]; propofol 10 mg/mL
  CAPTISOL® cyclodextrin concentration required to raise aqueous propofol from 0.15 mg/mL to 10 mg/mL: 15 % w/v
hemolysis
  hemolytic behavior: essentially no hemolytic behavior

## CC(C)c1cccc(C(C)C)c1O [propofol, 2,6-diisopropylphenol]
[2]
  water solubility: approximately 0.154 mg/mL
physchem
  solubility: ~150 µg/mL (≈ 841 µM)
other
  solubility in water: 150 µg/mL (≈ 841 µM)
[1]; [4]
  concentration of uncomplexed propofol in solution: ~0.00124 M
  concentration of uncomplexed propofol in solution, % of the total: about 2.21%
[1]; [5]
  concentration of uncomplexed propofol in solution: ~0.000084 M
  concentration of uncomplexed propofol in solution, % of the total: about 0.15%
[3]
  time to induction of anesthesia from the start of injection: ≤ 40 s
